Results from US10947215B2, “Heteroaryl compounds and their use as therapeutic drugs” (Dong-A Socio Holdings Co., Ltd., priority 2015, dated 2021).

What follows are compounds tested on Ba/F3-CDM cells (Ba/F3 transfected with CD8-MerTK) (assay: In cell MER kinase assay, Ba/F3-CDM cell proliferation without IL-3 (Celltiter-Glo, GI50)). Conditions: 48 hours, read-out: Cell growth inhibition (GI50).
Type: cell-based, murine
Experimental: In Cell MER Kinase Assay Using BaF3 Cellular System
To establish an in cell kinase assay for MerTK kinase, the IL-3 dependent Ba/F3 cells of murine lymphoid origin was transfected with CD8-MerTK. […] For a routine cellular assay, Ba/F3-CDM cells were seeded at 2,000 cells per well in 384-well cell culture plate containing DMEM/10% FBS culture media and incubated for 24 hours before addition of compounds pre-diluted in culture media. Following compound treatment, cells were further incubated for 48 hours and the proliferation was measured. To discriminate a Ba/F3 growth inhibition by a specific inhibition of MerTK kinase following compound treatment vs growth inhibition due to a non-specific unintended cytotoxicity of compounds, we routinely carried out control sets of Ba/F3 cells in parallel that grown in IL3-supplemented growth media. In the presence of IL-3, the proliferation of Ba/F3 is no longer dependent on the MerTK activity. Cell growth and proliferation was measured with Celltiter-Glo™ system (Promega, USA) according to the manufacturer's instruction. The half-maximal growth inhibitory concentration (GI50) value was calculated with Prism6.0 software (GraphPad, USA).

`CCN1CCN(Cc2ccc(-c3ccc(CO[C@H]4CCC[C@@H]4NC(=O)c4cc(-c5cnn(C)c5)cnc4N)cc3)cc2)CC1` [Example 183, 2-amino-N-((1S,2S)-2-((4′-((4-ethylpiperazin-1-yl)methyl)-[1,1′-biphenyl]-4-yl)methoxy)cyclopentyl)-5-(1-methyl-1H-pyrazol-4-yl)nicotinamide] and `Cn1cc(-c2cnc(N)c(C(=O)N[C@H]3CCC[C@@H]3OCc3ccc(-c4ccc(CN5CCN(C6CC6)CC5)cc4)cc3)c2)cn1` [Example 184, 2-amino-N-((1S,2S)-2-((4′-((4-cyclopropylpiperazin-1-yl)methyl)-[1,1′-biphenyl]-4-yl)methoxy)cyclopentyl)-5-(1-methyl-1H-pyrazol-4-yl)nicotinamide] cannot be ordered by GI50: less than 100 nM for the first, less than 100 nM for the second.

`C[C@@H]1CN(Cc2ccc(-c3ccc(CO[C@H]4CCC[C@@H]4NC(=O)c4cc(-c5cnn(C)c5)cnc4N)cc3)cc2)CCN1C` [Example 186, 2-amino-N-((1S,2S)-2-((4′-(((R)-3,4-dimethylpiperazin-1-yl)-methyl)-[1,1′-biphenyl]-4-yl)methoxy)cyclopentyl)-5-(1-methyl-1H-pyrazol-4-yl)-nicotinamide] and `CCC1CN(Cc2ccc(-c3ccc(CO[C@H]4CCC[C@@H]4NC(=O)c4cc(-c5cnn(C)c5)cnc4N)cc3)cc2)CCN1C` (stereo partly drawn) [Example 188, 2-amino-N-((1S,2S)-2-((4′-((3-ethyl-4-methylpiperazin-1-yl)-methyl)-[1,1′-biphenyl]-4-yl)methoxy)cyclopentyl)-5-(1-methyl-1H-pyrazol-4-yl)-nicotinamide] cannot be ordered by GI50: less than 100 nM for the first, less than 100 nM for the second.

Compared with `C[C@@H]1CN(C)CCN1Cc1ccc(-c2ccc(CO[C@H]3CCC[C@@H]3NC(=O)c3cc(-c4cnn(C)c4)cnc3N)cc2)cc1` [Example 187, 2-amino-N-((1S,2S)-2-((4′-(((R)-2,4-dimethylpiperazin-1-yl)-methyl)-[1,1′-biphenyl]-4-yl)methoxy)cyclopentyl)-5-(1-methyl-1H-pyrazol-4-yl)-nicotinamide], `CC1CN[C@@H](C)CN1Cc1ccc(-c2ccc(CO[C@H]3CCC[C@@H]3NC(=O)c3cc(-c4cnn(C)c4)cnc3N)cc2)cc1` (stereo partly drawn) [Example 191, 2-amino-N-((1S,2S)-2-((4′-((trans-2,5-dimethylpiperazin-1-yl)methyl)-[1,1′-biphenyl]-4-yl)methoxy)cyclopentyl)-5-(1-methyl-1H-pyrazol-4-yl)nicotinamide] is higher in GI50: less than 100 nM for the first, 100 to 500 nM for the second.

Compared with `C[C@@H]1CN(Cc2ccc(-c3ccc(CO[C@H]4CCC[C@@H]4NC(=O)c4cc(-c5cnn(C)c5)cnc4N)cc3)cc2)C[C@H](C)N1` [Example 189, 2-amino-N-((1S,2S)-2-((4′-((cis-3,5-dimethylpiperazin-1-vi)-methyl)-[1,1′-biphenyl]-4-yl)methoxy)cyclopentyl)-5-(1-methyl-1H-pyrazol-4-yl)-nicotinamide], `CN(C)C1CCN(Cc2ccc(-c3ccc(CO[C@H]4CCC[C@@H]4NC(=O)c4cc(-c5cnn(C)c5)cnc4N)cc3)cc2)C1` (stereo partly drawn) [Example 193, 2-amino-N-((1S,2S)-2-((4′-((3-(dimethylamino)pyrrolidin-1-yl)methyl)-[1,1′-biphenyl]-4-yl)methoxy)cyclopentyl)-5-(1-methyl-1H-pyrazol-4-yl)nicotinamide] is lower in GI50: 100 to 500 nM for the first, less than 100 nM for the second.

`CN1CCN(Cc2ccc(-c3ccc(CO[C@H]4CCC[C@@H]4NC(=O)c4nc(-c5cnn(C)c5)cnc4N)cc3)cc2)CC1` [Example 194, 3-amino-6-(1-methyl-1H-pyrazol-4-yl)-N-((1S,2S)-2-((4′-((4-methylpiperazin-1-yl)methyl)-[1,1′-biphenyl]-4-yl)methoxy)cyclopentyl)pyrazine-2-carboxamide] and `CN1CCN(Cc2ccc(-c3ccc(CO[C@H]4CCC[C@@H]4NC(=O)c4cc(-c5cnn(C)c5)cnc4N)cc3)cc2F)CC1` [Example 195, 2-amino-N-((1S,2S)-2-((3′-fluoro-4′-((4-methylpiperazin-1-yl)-methyl)-[1,1′-biphenyl]-4-yl)methoxy)cyclopentyl)-5-(1-methyl-1H-pyrazol-4-yl)-nicotinamide] cannot be ordered by GI50: less than 100 nM for the first, less than 100 nM for the second.

`CN1CCN(Cc2ccc(-c3ccc(CO[C@H]4CCC[C@@H]4NC(=O)c4cc(-c5cnn(C)c5)cnc4N)cc3)cc2C(F)(F)F)CC1` [Example 197, 2-amino-5-(1-methyl-1H-pyrazol-4-yl)-N-((1S,2S)-2-((4′-((4-methylpiperazin-1-yl)methyl)-3′-(trifluoromethyl)-[1,1′-biphenyl]-4-yl)methoxy)-cyclopentyl)nicotinamide] and `Cn1cc(-c2cnc(N)c(C(=O)N[C@H]3CCC[C@@H]3OCc3ccc(-c4ccc(CN5CCN(CCO)CC5)c(C(F)(F)F)c4)cc3)c2)cn1` [Example 205, 2-amino-N-((1S,2S)-2-((4′-((4-(2-hydroxyethyl)piperazin-1-yl)methyl)-3′-(trifluoromethyl)-[1,1′-biphenyl]-4-yl)methoxy)cyclopentyl)-5-(1-methyl-1H-pyrazol-4-yl)nicotinamide] cannot be ordered by GI50: less than 100 nM for the first, less than 100 nM for the second.

`Cc1cc(-c2ccc(CO[C@H]3CCC[C@@H]3NC(=O)c3cc(-c4cnn(C)c4)cnc3N)cc2)ccc1CN1CCN(C)CC1` [Example 198, 2-amino-5-(1-methyl-1H-pyrazol-4-yl)-N-((1S,2S)-2-((3′-methyl-4′-((4-methylpiperazin-1-yl)methyl)-[1,1′-biphenyl]-4-yl)methoxy)cyclopentyl)-nicotinamide] and `CN1CCN(Cc2ccc(-c3ccc(CO[C@H]4CCC[C@@H]4NC(=O)c4cc(-c5cnn(C)c5)cnc4N)cc3)cc2O)CC1` [Example 199, 2-amino-N-((1S,2S)-2-((3′-hydroxy-4′-((4-methylpiperazin-1-yl)methyl)-[1,1′-biphenyl]-4-yl)methoxy)cyclopentyl)-5-(1-methyl-1H-pyrazol-4-yl)nicotinamide] cannot be ordered by GI50: less than 100 nM for the first, less than 100 nM for the second.

`CC(c1ccc(-c2ccc(CO[C@H]3CCC[C@@H]3NC(=O)c3cc(-c4cnn(C)c4)cnc3N)cc2)cc1)N1CCN(C)CC1` (stereo partly drawn) [Example 208, 2-amino-5-(1-methyl-1H-pyrazol-4-yl)-N-((1S,2S)-2-((4′-(1-(4-methylpiperazin-1-yl)ethyl)-[1,1′-biphenyl]-4-yl)methoxy)cyclopentyl)nicotinamide] and `C[C@H](c1ccc(-c2ccc(CO[C@H]3CCC[C@@H]3NC(=O)c3cc(-c4cnn(C)c4)cnc3N)cc2)cc1)N1CCN(C)CC1` [Example 214, 2-amino-5-(1-methyl-1H-pyrazol-4-yl)-N-((1S,2S)-2-((4′-((R)-1-(4-methylpiperazin-1-yl)ethyl)-[1,1′-biphenyl]-4-yl)methoxy)cyclopentyl)nicotinamide] cannot be ordered by GI50: less than 100 nM for the first, less than 100 nM for the second.

`CC(c1ccc(-c2ccc(CO[C@H]3CCC[C@@H]3NC(=O)c3cc(-c4cnn(C)c4)cnc3N)cc2)cc1)N1C[C@@H](C)N(C)[C@@H](C)C1` (stereo partly drawn) [Example 209, 2-amino-5-(1-methyl-1H-pyrazol-4-yl)-N-((1S,2S)-2-((4′-(1-((3S,5R)-3,4,5-trimethylpiperazin-1-yl)ethyl)-[1,1′-biphenyl]-4-yl)methoxy)-cyclopentyl)nicotinamide] and `CC(c1ccc(-c2ccc(CO[C@H]3CCC[C@@H]3NC(=O)c3cc(-c4cnn(C)c4)cnc3N)cc2)cc1)N1C[C@@H](C)N(CCO)[C@@H](C)C1` (stereo partly drawn) [Example 211, 2-amino-N-((1S,2S)-2-((4′-(1-((3S,5R)-4-(2-hydroxyethyl)-3,5-dimethylpiperazin-1-yl)ethyl)-[1,1′-biphenyl]-4-yl)methoxy)cyclopentyl)-5-(1-methyl-1H-pyrazol-4-yl)nicotinamide] cannot be ordered by GI50: less than 100 nM for the first, less than 100 nM for the second.

First: CC(c1c(F)cc(-c2ccc(CO[C@H]3CCC[C@@H]3NC(=O)c3cc(-c4cnn(C)c4)cnc3N)cc2)cc1F)N1CCN(CCO)CC1 (stereo partly drawn) [Example 212, 2-amino-N-((1S,2S)-2-((3′,5′-difluoro-4′-(1-(4-(2-hydroxyethyl)-piperazin-1-yl)ethyl)-[1,1′-biphenyl]-4-yl)methoxy)cyclopentyl)-5-(1-methyl-1H-pyrazol-4-yl)nicotinamide]
Second: C[C@@H](c1ccc(-c2ccc(CO[C@H]3CCC[C@@H]3NC(=O)c3cc(-c4cnn(C)c4)cnc3N)cc2)cc1)N1CCN(C)CC1 [Example 215]
The GI50 of the first is higher: greater than 1000 nM for the first, less than 100 nM for the second.

`Cn1cc(-c2cnc(N)c(C(=O)N[C@H]3CCC[C@@H]3OCc3ccc(-c4ccc(C5(N6CCN(CCO)CC6)CC5)cc4)cc3)c2)cn1` [Example 220, 2-amino-N-((1S,2S)-2-((4′-(1-(4-(2-hydroxyethyl)piperazin-1-yl)cyclopropyl)-[1,1′-biphenyl]-4-yl)methoxy)cyclopentyl)-5-(1-methyl-1H-pyrazol-4-yl)nicotinamide] and `C[C@@H](c1ccc(-c2ccc(CO[C@H]3CCC[C@@H]3NC(=O)c3cc(-c4ccc(F)nc4)cnc3N)cc2)cc1)N1CCN(CCO)CC1` [Example 226, 6-amino-6′-fluoro-N-((1S,2S)-2-((4′-((S)-1-(4-(2-hydroxyethyl)piperazin-1-yl)ethyl)-[1,1′-biphenyl]-4-yl)methoxy)cyclopentyl)-[3,3′-bipyridine]-5-carboxamide] cannot be ordered by GI50: less than 100 nM for the first, less than 100 nM for the second.

For `C[C@@H](c1ccc(-c2ccc(CO[C@H]3CCC[C@@H]3NC(=O)c3cc(-c4ccc(F)nc4)cnc3N)cc2)cc1)N1CCN(C)CC1` [Example 222, 6-amino-6′-fluoro-N-((1S,2S)-2-((4′-((S)-1-(4-methylpiperazin-1-yl)ethyl)-[1,1′-biphenyl]-4-yl)methoxy)cyclopentyl)-[3,3′-bipyridine]-5-carboxamide], the GI50 was less than 100 nM.
